Test results: publication PMC3034978 (Biopharmaceutics & drug disposition, 2010)
Where two headings read alike, the source gives them in different places. Marks after values point to notes of the source that are not given here.

Key:
BME-UV monolayer = experiment: Mannitol flux across BME-UV monolayer from Ap-to-BL side; type: in vitro ADME, bovine; conditions: for Effect on flux of mannitol across BME-UV monolayer (monolayer integrity): 200 ng/ml TNF-α
bABCB1 mRNA = bABCB1 mRNA expression by quantitative real-time RT-PCR in BME-UV cells; type: cell-based, bovine; conditions: 200 ng/ml TNF-α, 24 hours exposure, vs unexposed cells
P-glycoprotein [1] = experiment: Western blot of P-glycoprotein immunoreactive bands in BME-UV cells; type: cell-based, bovine; conditions: TNF-α 200 ng/ml
P-glycoprotein [2] = target: P-glycoprotein (Bos taurus, UniProt A0A3Q1MB23); experiment: Ap-to-BL flux of digoxin; type: in vitro ADME, bovine; conditions: TNF-α 200 ng/ml, 24 hours exposure; 0.05 μM [3H]-digoxin
[3] = test system: mammary epithelial monolayer (BME-UV); conditions: exposure to TNF-α for 8 hours; cited from earlier work

P-glycoprotein (Bos taurus, UniProt A0A3Q1MB23), sequence (A0A3Q1MB23 1-1267): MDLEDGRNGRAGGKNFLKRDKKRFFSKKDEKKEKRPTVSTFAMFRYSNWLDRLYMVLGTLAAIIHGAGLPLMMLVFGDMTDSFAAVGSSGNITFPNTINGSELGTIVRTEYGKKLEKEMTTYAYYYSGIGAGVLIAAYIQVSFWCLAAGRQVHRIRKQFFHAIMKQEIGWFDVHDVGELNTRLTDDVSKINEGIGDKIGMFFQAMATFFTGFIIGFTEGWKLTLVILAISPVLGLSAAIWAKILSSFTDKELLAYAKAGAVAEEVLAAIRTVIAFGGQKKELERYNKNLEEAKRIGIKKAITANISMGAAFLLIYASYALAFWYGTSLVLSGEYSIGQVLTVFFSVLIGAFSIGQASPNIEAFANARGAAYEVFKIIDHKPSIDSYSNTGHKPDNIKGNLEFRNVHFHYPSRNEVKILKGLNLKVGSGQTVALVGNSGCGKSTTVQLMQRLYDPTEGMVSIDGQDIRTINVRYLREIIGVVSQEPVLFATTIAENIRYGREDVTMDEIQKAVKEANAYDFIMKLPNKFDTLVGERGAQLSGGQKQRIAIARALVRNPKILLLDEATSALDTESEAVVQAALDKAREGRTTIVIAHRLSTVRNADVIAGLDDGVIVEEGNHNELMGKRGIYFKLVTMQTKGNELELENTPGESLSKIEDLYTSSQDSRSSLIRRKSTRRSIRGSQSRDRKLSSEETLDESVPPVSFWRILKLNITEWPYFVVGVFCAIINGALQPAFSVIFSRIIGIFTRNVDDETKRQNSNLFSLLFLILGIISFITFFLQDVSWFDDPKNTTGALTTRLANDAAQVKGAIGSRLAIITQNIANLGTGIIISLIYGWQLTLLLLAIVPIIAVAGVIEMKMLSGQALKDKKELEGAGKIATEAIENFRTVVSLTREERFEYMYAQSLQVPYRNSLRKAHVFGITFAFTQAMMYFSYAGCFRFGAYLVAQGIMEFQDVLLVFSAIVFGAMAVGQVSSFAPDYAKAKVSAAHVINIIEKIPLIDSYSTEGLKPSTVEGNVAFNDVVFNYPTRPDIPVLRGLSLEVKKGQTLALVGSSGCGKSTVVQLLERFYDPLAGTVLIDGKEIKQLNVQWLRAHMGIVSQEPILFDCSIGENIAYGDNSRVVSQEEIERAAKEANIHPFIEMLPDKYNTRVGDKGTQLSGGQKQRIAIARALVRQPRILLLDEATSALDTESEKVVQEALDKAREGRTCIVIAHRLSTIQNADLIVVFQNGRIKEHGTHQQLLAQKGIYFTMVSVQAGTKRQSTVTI

For C[C@H]1O[C@@H](O[C@H]2[C@@H](O)C[C@H](O[C@H]3[C@@H](O)C[C@H](O[C@H]4CC[C@@]5(C)[C@H](CC[C@@H]6[C@@H]5C[C@@H](O)[C@]5(C)[C@@H](C7=CC(=O)OC7)CC[C@]65O)C4)O[C@@H]3C)O[C@@H]2C)C[C@H](O)[C@@H]1O [digoxin], the “Intracellular content of digoxin” value (BME-UV cells; BME-UV cells exposed to TNF-α for 24 hours) was 4.6 ± 1.1 × 10^−4 nmol, the “Intracellular content of digoxin” value (BME-UV cells; BME-UV cells exposed to TNF-α for 72 hrs) was 3.0 ± 0.2 × 10^−4 nmol and the “Intracellular content of digoxin” value (BME-UV cells; unexposed BME-UV cells) was 6.3 ± 2.6 × 10^−4 nmol.
For OC[C@@H](O)[C@@H](O)[C@H](O)[C@H](O)CO [mannitol], the “Mannitol flux, Ap-to-BL” value (BME-UV monolayer; BME-UV exposed to TNF-α 200 ng/ml for 24 hr (TNF-24H)) was 15.5 × 10^−3 ^b nmol/cm^2/hr, the “Mannitol flux, Ap-to-BL” value (BME-UV monolayer; BME-UV exposed to TNF-α 200 ng/ml for 72 hr (TNF-72H)) was 14.1 × 10^−3 ^b nmol/cm^2/hr and the “Mannitol flux, Ap-to-BL” value (BME-UV monolayer; BME-UV exposed to TNF-α 200 ng/ml for 120 hr (TNF-120H)) was 9.6 × 10^−3 ^a nmol/cm^2/hr. For the same molecule, the “Flux value of mannitol” value (BME-UV monolayer; TNF-α exposed monolayers for 24 hours) was 15.5 ± 0.8 × 10^−6 μmol/cm^2 per hour, the “Mannitol flux, Ap-to-BL” value (BME-UV monolayer; Untreated BME-UV monolayer, 2 μM [14C]-mannitol) was 6.5 × 10^−3 ^a nmol/cm^2/hr and the “Flux value of mannitol” value (BME-UV monolayer; unexposed monolayers) was 6.5 ± 0.7 × 10^−6 μmol/cm^2 per hour.
For TNF-α, the “Effect on flux of mannitol across BME-UV monolayer (monolayer integrity)” value (BME-UV monolayer; 24 and 72 hours exposure) was “increased significantly”, the “Effect on flux of mannitol across BME-UV monolayer (monolayer integrity)” value (BME-UV monolayer; 120 hours exposure) was “indistinguishable from untreated” and the “Change in bABCB1 mRNA expression” value (bABCB1 mRNA) was “significant increase”. The “Change in P-glycoprotein immunoreactive level” value (P-glycoprotein [1]; 24 hours exposure) was “significant increase”, the “Change in P-glycoprotein immunoreactive level” value (P-glycoprotein [1]; 72 hours exposure) was “maximum observed effect” and the “Change in P-glycoprotein immunoreactive level” value (P-glycoprotein [1]; 120 hours exposure, lower than at 72 hours) was “increased significantly”. The “Change in Ap-to-BL flux of digoxin” value (P-glycoprotein [2]) was “significantly decreased” and the “Decrease in Rte value” [3] was 30%.
